# Biological target: T1, Prostaglandin G/H synthase 2 (Homo sapiens, UniProt P35354)
# T1 sequence (P35354 whole entry): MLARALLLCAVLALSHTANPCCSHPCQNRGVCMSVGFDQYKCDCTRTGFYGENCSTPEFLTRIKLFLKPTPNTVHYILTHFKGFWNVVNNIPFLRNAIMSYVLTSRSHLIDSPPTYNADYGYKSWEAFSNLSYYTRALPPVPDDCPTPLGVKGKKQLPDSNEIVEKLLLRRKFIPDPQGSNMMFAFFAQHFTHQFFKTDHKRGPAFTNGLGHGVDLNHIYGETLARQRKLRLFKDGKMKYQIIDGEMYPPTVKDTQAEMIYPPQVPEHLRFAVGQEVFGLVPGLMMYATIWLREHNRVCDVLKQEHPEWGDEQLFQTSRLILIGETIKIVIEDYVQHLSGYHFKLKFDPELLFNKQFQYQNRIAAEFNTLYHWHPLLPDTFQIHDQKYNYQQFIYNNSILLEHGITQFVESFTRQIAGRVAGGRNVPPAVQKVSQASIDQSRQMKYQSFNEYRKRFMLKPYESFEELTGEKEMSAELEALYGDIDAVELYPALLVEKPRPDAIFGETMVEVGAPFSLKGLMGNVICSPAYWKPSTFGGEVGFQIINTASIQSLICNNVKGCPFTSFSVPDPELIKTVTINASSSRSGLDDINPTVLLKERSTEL
# Assay: IC50 value against recombinant human Prostaglandin G/H synthase 2 at 10 uM; not active
smiles,measurement,value
"CONC1=NC(=O)C(=Cc2cc(C(C)(C)C)c(O)c(C(C)(C)C)c2)O1 [5-[1-(3,5-Di-tert-butyl-4-hydroxy-phenyl)-meth-(Z)-ylidene]-2-methoxyamino-oxazol-4-one]",IC50,> 10 µM

# Source: BindingDB's records for doi:10.1021/jm9805081 (Warner-Lambert, 1999)
